Laboratory results: US11413349B2, “Green methodology to create polymeric nanocarriers containing hydrophilic low molecular-weight drugs and providing a very high drug loading and a very high prolonged release” (UNIVERSIDAD DE CHILE, priority 2019, dated 2022)
Read-outs that look alike come from different tables or passages of the source.

Tests used:
[1] = cited from earlier work
[2] = Diafiltration study of kinetically and thermodynamically bound drug; assay type: physicochemical
Method: Diafiltration studies were carried out to determine the fraction of amitriptyline (AMT) that was kinetically or thermodynamically bound to poly(sodium 4-styrenesulfonate (PSS) as the nanoparticle. For this study, diafiltration was been modeled as a two-compartment system, where a continuous liquid supply from the donor chamber (reservoir) is kept, maintaining a constant volume in the diafiltration cell. The unit used for diafiltration analyses consisted of a diafiltration cell, a regenerated cellulose membrane, a reservoir, a […], and a pressure source. […] The volume in the filtration cell was kept constant during the experiment, by creating a continuous flux of liquid through the diafiltration cell, from the reservoir to the collector tube. […] A total of 8 samples (approx. 5 mL) were collected and AMT concentration in each sample was determined by spectrophotometry. Subsequently, the thermodynamically bound (TB) and kinetically bound (KB) fractions were determined as follows: TB=v(km-j)/km KB=u-um The parameters v and u represent the initial fraction of AMT thermodynamically bound to the particles, thus in equilibrium, and the fraction bound to the nanocarriers whose release is kinetically controlled, respectively. […] A total of 8 samples (approx. 5 mL) were collected and the concentration of the interest species in each sample was determined by spectrophotometry. […]

[3] = In vitro drug release by dialysis; assay type: physicochemical; details: AMT/PSS n+/n−=0.60, dialysis, pH=7 and 37° C., 20 days
Method: The in vitro drug release of amitriptyline (AMT) from poly (sodium 4-styrenesulfonate (PSS) was evaluated using a dialysis method. Briefly, 5 mL of AMT/PSS (n+/n−=0.60) was transferred to a dialysis membrane. The membrane was immersed in 95 mL of Milli-Q water at pH 7 and kept at 37° C. and 100 rpm in an orbital shaker. The experiment was carried out for 20 days. Aliquots (500 μL) of the solution were withdrawn at certain time intervals and replaced with an equal volume of fresh Milli-Q water. The amount of released AMT was determined by measuring the absorbance of each aliquot at 239 nm. The standard curve of AMT in water was linear (R2>0.997) in the range of concentrations between 7×10^−5 M and 7×10^−7 M (molar extinction coefficient was 12712 M^−1 cm^−1). Blank experiments dialyzing free AMT were carried out at the same conditions.
i) Dialysis: 5 mL of HALMD/PSS formulations were added in a dialysis bag (MWCO 10 kDa, ThermoScientific, USA). The dialysis system was immersed in 95 mL of Milli-Q water at pH 7 and kept at 37° C., and 100 rpm in an orbital shaker (LSI-3016R, LabTech, Daihan LabTech, Kyonggi-Do, Korea). […] The amount of released HALMD (CQ, PMZ and CPM) was determined by measuring the absorbance of each aliquot by spectrophotometry (Agilent 8453 spectrophotometer, USA).

[4] = cited from earlier work; remark: listed apart in the source

## CN(C)CCCN1c2ccccc2CCc2ccccc21 [imipramine]
[1]; from calcium-alginate gel beads, 1-2 h (Tomida et al)
  burst release: ≈ 80%

## CN(C)CCC=C1c2ccccc2CCc2ccccc21 [AMT, amitriptyline]
[2]; AMT/PSS formulations
  drug molecules not subjected to equilibrium with the bulk (release kinetically controlled): more than 80%
[3]
  release of AMT: ≤ 16.5%
[1]; from polyvinyl alcohol-based beads, first stage of the experiment (Ahnfelt et al)
  release: > 80%

## CN(C)CCC(c1ccc(Cl)cc1)c1ccccn1 (centres unmarked) [Chlorpheniramine]
[2]; HALMD/PSS NPs
  drug association attributed to kinetic binding: ≈ 50%
[4]
  pKa: 4.0
[4]; second value
  pKa: 9.4

## COc1cccc2c1C(=O)c1c(O)c3c(c(O)c1C2=O)C[C@@](O)(C(=O)CO)C[C@@H]3O[C@H]1C[C@H](N)[C@H](O)[C@H](C)O1 [doxorubicin]
[1]; poly(N-isopropylacrylamide)-based thermosensitive hydrogel (Chen et al)
  initial drug release: 40%
